# Tests used:
# Test in all cases: relative viability (nuclei count vs DMSO), 5 days (fraction); higher = more cells survive
# NCI-H1792 = tested on: NCI-H1792
# In short: (§1)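 The day after seeding in 1536-well plates, lung cancer cell lines were treated by pin tool with a single drug, or with a fixed anchor-drug dose together with five library-drug doses (not always all listed) in √10 steps. After 5 days, a combined fix-and-stain solution (final 0.05% Triton X-100, 1% formaldehyde, 1 ug/ml Hoechst) was added. Nuclei counted on 4× images gave relative viability as treated counts over vehicle counts, reported as the median of duplicate plates.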
# LOU-NH91 = tested on: LOU-NH91
# In short: as §1
# NCI-H1437 = tested on: NCI-H1437
# In short: as §1
# NCI-H2170 = tested on: NCI-H2170
# In short: as §1
# NCI-H23 = tested on: NCI-H23
# In short: as §1
# NCI-H322M = tested on: NCI-H322M
# In short: as §1
# ChaGo-K-1 = tested on: ChaGo-K-1
# In short: as §1
# NCI-H1755 = tested on: NCI-H1755
# In short: as §1
# HOP-62 = tested on: HOP-62
# In short: as §1
# NCI-H650 = tested on: NCI-H650
# In short: as §1
# NCI-H1355 = tested on: NCI-H1355
# In short: as §1
# NCI-H2405 = tested on: NCI-H2405
# In short: as §1
# LCLC-97TM1 = tested on: LCLC-97TM1
# In short: as §1
# NCI-H441 = tested on: NCI-H441
# In short: as §1
# ABC-1 = tested on: ABC-1
# In short: as §1
# RERF-LC-KJ = tested on: RERF-LC-KJ
# In short: as §1
# HCC-78 = tested on: HCC-78
# In short: as §1
# NCI-H727 = tested on: NCI-H727
# In short: as §1
# NCI-H2085 = tested on: NCI-H2085
# In short: as §1
smiles,measurement,setting,value
O=c1[nH]c2ccccc2n1C1CCN(CCCC(c2ccc(F)cc2)c2ccc(F)cc2)CC1 [Pimozide] + NC(=O)Nc1cc(-c2cccc(F)c2)sc1C(=O)N[C@H]1CCCNC1 [AZD7762] (partner 0.2 µM),relative viability,NCI-H1792; first compound 0.08 µM,0.793
same,relative viability,NCI-H1792; first compound 0.253 µM,0.733
same,relative viability,NCI-H1792; first compound 0.8 µM,0.679
same,relative viability,NCI-H1792; first compound 2.53 µM,0.748
same,relative viability,NCI-H1792; first compound 8 µM,0.5
same,relative viability,LOU-NH91; first compound 0.08 µM,0.713
same,relative viability,LOU-NH91; first compound 0.253 µM,0.746
same,relative viability,LOU-NH91; first compound 0.8 µM,0.776
same,relative viability,LOU-NH91; first compound 2.53 µM,0.778
same,relative viability,LOU-NH91; first compound 8 µM,0.778
same,relative viability,NCI-H1437; first compound 0.08 µM,1.14
same,relative viability,NCI-H1437; first compound 0.253 µM,1.09
same,relative viability,NCI-H1437; first compound 0.8 µM,1.03
same,relative viability,NCI-H1437; first compound 2.53 µM,1.05
same,relative viability,NCI-H1437; first compound 8 µM,1.09
same,relative viability,NCI-H2170; first compound 0.08 µM,0.875
same,relative viability,NCI-H2170; first compound 0.253 µM,0.828
same,relative viability,NCI-H2170; first compound 0.8 µM,0.85
same,relative viability,NCI-H2170; first compound 2.53 µM,0.915
same,relative viability,NCI-H2170; first compound 8 µM,0.802
same,relative viability,NCI-H23; first compound 0.08 µM,0.248
same,relative viability,NCI-H23; first compound 0.253 µM,0.315
same,relative viability,NCI-H23; first compound 0.8 µM,0.195
same,relative viability,NCI-H23; first compound 2.53 µM,0.167
same,relative viability,NCI-H23; first compound 8 µM,0.213
same,relative viability,NCI-H322M; first compound 0.08 µM,0.502
same,relative viability,NCI-H322M; first compound 0.253 µM,0.538
same,relative viability,NCI-H322M; first compound 0.8 µM,0.58
same,relative viability,NCI-H322M; first compound 2.53 µM,0.625
same,relative viability,NCI-H322M; first compound 8 µM,0.387
same,relative viability,ChaGo-K-1; first compound 0.08 µM,0.914
same,relative viability,ChaGo-K-1; first compound 0.253 µM,0.871
same,relative viability,ChaGo-K-1; first compound 0.8 µM,0.88
same,relative viability,ChaGo-K-1; first compound 2.53 µM,0.803
same,relative viability,ChaGo-K-1; first compound 8 µM,0.824
same,relative viability,NCI-H1755; first compound 0.08 µM,0.727
same,relative viability,NCI-H1755; first compound 0.253 µM,0.42
same,relative viability,NCI-H1755; first compound 0.8 µM,0.47
same,relative viability,NCI-H1755; first compound 2.53 µM,0.533
same,relative viability,NCI-H1755; first compound 8 µM,0.46
same,relative viability,HOP-62; first compound 0.08 µM,0.634
same,relative viability,HOP-62; first compound 0.253 µM,0.477
same,relative viability,HOP-62; first compound 2.53 µM,0.661
same,relative viability,HOP-62; first compound 8 µM,0.517
same,relative viability,NCI-H650; first compound 0.08 µM,1.17
same,relative viability,NCI-H650; first compound 0.253 µM,0.983
same,relative viability,NCI-H650; first compound 0.8 µM,0.831
same,relative viability,NCI-H650; first compound 2.53 µM,0.909
same,relative viability,NCI-H650; first compound 8 µM,0.693
same,relative viability,NCI-H1355; first compound 0.08 µM,0.757
same,relative viability,NCI-H1355; first compound 0.253 µM,0.732
same,relative viability,NCI-H1355; first compound 0.8 µM,0.701
same,relative viability,NCI-H1355; first compound 2.53 µM,0.641
same,relative viability,NCI-H1355; first compound 8 µM,0.761
same,relative viability,NCI-H2405; first compound 0.08 µM,0.741
same,relative viability,NCI-H2405; first compound 0.253 µM,0.716
same,relative viability,NCI-H2405; first compound 0.8 µM,0.673
same,relative viability,NCI-H2405; first compound 2.53 µM,0.608
same,relative viability,NCI-H2405; first compound 8 µM,0.426
same,relative viability,LCLC-97TM1; first compound 0.08 µM,0.363
same,relative viability,LCLC-97TM1; first compound 0.253 µM,0.23
same,relative viability,LCLC-97TM1; first compound 0.8 µM,0.171
same,relative viability,LCLC-97TM1; first compound 2.53 µM,0.246
same,relative viability,LCLC-97TM1; first compound 8 µM,0.376
same,relative viability,NCI-H441; first compound 0.08 µM,1.32
same,relative viability,NCI-H441; first compound 0.253 µM,0.806
same,relative viability,NCI-H441; first compound 0.8 µM,1.26
same,relative viability,NCI-H441; first compound 2.53 µM,1.09
same,relative viability,NCI-H441; first compound 8 µM,1.04
same,relative viability,ABC-1; first compound 0.253 µM,0.775
same,relative viability,ABC-1; first compound 0.8 µM,0.817
same,relative viability,ABC-1; first compound 2.53 µM,0.583
same,relative viability,ABC-1; first compound 8 µM,0.509
same,relative viability,RERF-LC-KJ; first compound 0.08 µM,0.91
same,relative viability,RERF-LC-KJ; first compound 0.253 µM,0.866
same,relative viability,RERF-LC-KJ; first compound 0.8 µM,0.806
same,relative viability,RERF-LC-KJ; first compound 2.53 µM,0.757
same,relative viability,RERF-LC-KJ; first compound 8 µM,0.81
same,relative viability,HCC-78; first compound 0.08 µM,0.547
same,relative viability,HCC-78; first compound 0.8 µM,0.607
same,relative viability,HCC-78; first compound 2.53 µM,0.55
same,relative viability,HCC-78; first compound 8 µM,0.6
same,relative viability,NCI-H727; first compound 0.08 µM,0.496
same,relative viability,NCI-H727; first compound 0.253 µM,0.581
same,relative viability,NCI-H727; first compound 0.8 µM,0.596
same,relative viability,NCI-H727; first compound 2.53 µM,0.613
same,relative viability,NCI-H727; first compound 8 µM,0.525
same,relative viability,NCI-H2085; first compound 0.08 µM,0.937
same,relative viability,NCI-H2085; first compound 0.253 µM,0.971
same,relative viability,NCI-H2085; first compound 0.8 µM,0.922
same,relative viability,NCI-H2085; first compound 2.53 µM,1.07
same,relative viability,NCI-H2085; first compound 8 µM,0.953
